Laboratory results from patent US11931482B2 (priority 2019, dated 2024).

Columns and labels:
[1] = tested on: Gram-positive pathogenic bacteria, including Mycobacterium tuberculosis, Bacillus subtilis, Enterococcus faecalis, Enterococcus faecium, Staphylococcus aureus; conditions: Hassanein et al. 2017; cited from earlier work
[2] = tested on: preformed Staphylococcus aureus biofilms; conditions: within two hours of exposure; Torres et al. 2016; cited from earlier work
[3] = oral antirheumatic therapy; Egsmose et al. 1995; cited from earlier work
[4] = tested on: Staphylococcus aureus strain MRSA USA300; assay: Microdilution assay, minimum inhibitory concentration of non-coating incorporated auranofin; type: cell-based; conditions: TSBG, ~18 hours
Experimental: Auranofin release from PU+auranofin-coated catheters was monitored by incubating each coated catheter in 1.98 mL of tryptic soy broth supplemented with 0.25% glucose (TSBG) at 37° C. with shaking at 110 rpm. […] Heilmann et al., Infect. Immun., 64, 277-82 (1996); Lim et al., J. Bacteriol., 186, 722-729 (2004). Every twenty-four hours, the release solutions were collected and completely replaced with fresh medium. A microdilution assay, as described by Shukla & Shukla, J. Mater. Chem. B, 6, 6444-6458 (2018), was used to determine the amount of auranofin contained in the media release samples by comparing the antibacterial activity to that of known concentrations of non-coating incorporated auranofin. […] Staphylococcus aureus strain MRSA USA300 (10 μL) at a final concentration of 10^5 CFU/mL in the exponential growth phase (as determined by optical density) was added to these wells. […] Subsequently, the optical density (OD) of the samples was read at 600-nm using a Cytation3 microplate reader (BioTek, Winooski, VT, USA). The normalized bacteria density was calculated using Equation (1).
The minimum inhibitory concentration of the auranofin control against USA300 was determined as the concentration range of auranofin needed to observe a statistically significant transition of normalized bacteria density from […]. […]

MRSA USA300 = assay: Kirby-Bauer assay, inner and outer surfaces of bisected coated catheters; type: cell-based; conditions: Staphylococcus aureus, read-out: average zone of inhibition diameter
Text: To evaluate the auranofin release, the inventors used a Kirby Bauer assay to visualize the bacterial inhibition and determine if the catheter released the auranofin into the surrounding media. Coated catheters were split through the circumference of the material to expose both the inner and outer surfaces. […] The inventors then placed these catheter pieces were then placed on a bacteria-seeded agar plate with the respective surfaces face down.
Antibacterial and antibiofilm activity of PU+auranofin catheter coatings was examined against MRSA USA300, a community-associated MRSA strain. Kirby-Bauer and broth bacteria survival assays on the coated catheters and their release solutions were conducted, respectively. For the Kirby-Bauer assay, MRSA USA300 in the exponential growth phase at a concentration of 10^8 CFU/mL was spread on tryptic soy agar plates. PU+auranofin-coated and PU+auranofin-uncoated catheters were cut in half lengthwise using a scalpel. Both the inner and outer surfaces of the catheters were placed in direct contact with the bacteria seeded agar and incubated for twenty-four hours at 37° C. These plates were then photographed using a Canon PowerShot S110 digital camera (Tokyo, Japan).

| SMILES | minimum inhibitory concentration (MIC) against these bacteria [1] [µg/mL] | effect on preformed Staphylococcus aureus biofilms [2] | cumulative toxicity during long-term treatments [3] | minimum inhibitory concentration against USA300 [4] [µg/mL] | zone of inhibition at 30 µg/disc (MRSA USA300) [mm] |
| --- | --- | --- | --- | --- | --- |
| CC(=O)OCC1OC([S-])C(OC(C)=O)C(OC(C)=O)C1OC(C)=O.CCP(CC)CC.[Au+] (centres unmarked) [auranofin, Gold(+1) cation; 3,4,5-triacetyloxy-6-(acetyloxymethyl) oxane-2-thiolate; triethylphosphanium] | ≥ 0.25 | inhibit preformed Staphylococcus aureus biofilms | no cumulative toxicity | 0.063 | – |
| CN[C@H](CC(C)C)C(=O)N[C@H]1C(=O)N[C@@H](CC(N)=O)C(=O)N[C@H]2C(=O)N[C@H]3C(=O)N[C@H](C(=O)N[C@H](C(=O)O)c4cc(O)cc(O)c4-c4cc3ccc4O)[C@H](O)c3ccc(c(Cl)c3)Oc3cc2cc(c3O[C@@H]2O[C@H](CO)[C@@H](O)[C@H](O)[C@H]2O[C@H]2C[C@](C)(N)[C@H](O)[C@H](C)O2)Oc2ccc(cc2Cl)[C@H]1O [vancomycin] | – | – | – | – | 14.8 ± 2 |
